EP0956028B1, “[…] INHIBITION OF […] GROWTH” (Purdue Research Foundation, priority 1996, dated 1998)

Test system: A549 human lung carcinoma cells
Assay: Tumor cell proliferation (cell count), indirect co-culture with submucosal tissue membrane
Assay type: cell-based
Experimental: Carcinoma ceil lines including A549 (human lung adenocarcinoma), MCF-7 (human breast carcinoma) and human colorectal carcinoma cell lines were obtained from American Type Cell Culture (ATCC). Cell cultures were routinely performed at 37°C in an incubator supplemented with 5% CO2 and 95% air. Media used were F-12 pius 10° o FBS (fetal bovine serum) (Gibco BRL) for the A549 cells and RPMI plus 10% FBS (Gibco BRL) for both the MCF-7 and colonic carcinoma cell lines. The inhibition of tumor cell growth on several different forms of submucosal tissue including PA-ST (submucosal tissue sterilized in peracetic acid), Native submucosal tissue (no further treatment after dissection), Gamma irradiated submucosal tissue and solubilized submucosal tissue was assessed.
Cancer cells were cultured in the presence of various forms of intestinal submucosal tissue at 37°C in an incubator supplemented with 5% CO2 and 95% air using the following procedures: • 1. Direct Contact: Intestinal submucosal tissue and the cultured cells physically contact one another. • 2. Indirect Contact: Intestinal submucosal tissue and the cultured cells are separated by a stainless steel mesh. • 3. Solubilized intestinal submucosal tissue added to the culture media. • 4. Cells are cultured on solubilized intestinal submucosa coated culture plate. The coating was applied by placing 1 ml of solubilized intestinal submucosal tissue in a 35mm culture plate, heating at 37°C for 2 hours, removing the excess intestinal submucosal tissue fluid by aspiration and washing the coated plates once with culture media.
• 1. […]
Tumor cells were plated at a cell density of approximately 5x10^5 cells/dish of 60 mm tissue culture dishes and grown until they reached about 50% confluence. Cell cultures were then subjected to the following treatments in triplicates: 1) control, cells grown in media only; 2) addition of different quantities of solubilized submucosal tissue (200-800 µl); 3) co-culture with submucosal tissue membranes of different sizes (indirect co-culture). […]

CC(=O)OO [Peracidic Acid, peracetic acid]
Cell Count (x10^5) (day 2 of treatment) (100 µl of Peracidic Acid, A549): 18.81 ± 2.59 x10^5 | % of Control (100 µl of Peracidic Acid, A549 cell count, day 2 of treatment): 97% | inhibitory effect on cell proliferation (added exogenously to tumor cells): no significant inhibitory effect
